# ChEMBL document CHEMBL5321283, “Structure-Activity Relationships of the Antimicrobial Peptide Natural Product Apidaecin” (J Med Chem, 2023)
# *1 amine or outer side, *2 acyl side, *3 side chain or, on linkers, in order; H or OH if unused. Where a SMILES comes first, the peptide text is derived from it. [ ]: non-standard residue; d: D form. The star is where a group is joined. Orn(α-tetramethylguanidino) = CN(C)C(=N[C@@H](CCCN)C(=O)*)N(C)C; X1 = N=C(N)NCCC[C@H](NC(=S)[C@@H]1CCCN1[*:1])C(=O)[*:2]; X3 = O=C([C@@H]1CCCN1C(=S)[C@@H]1CCCN1[*:1])[*:2]; 2Nal = N[C@@H](Cc1ccc2ccccc2c1)C(=O)O; Hyp = O=C(O)[C@@H]1C[C@@H](O)CN1; Cha = N[C@@H](CC1CCCCC1)C(=O)O; Cit = NC(=O)NCCC[C@H](N)C(=O)O
# Tests used:
# Escherichia coli [1] = test: Antibacterial activity against Escherichia coli BL21 assessed as bacterial growth inhibition by broth microdilution assay; assay type: functional
# Escherichia coli [2] = test: Potency index, ratio of Api-137 MIC to test compound MIC for antibacterial activity against Escherichia coli BL21 assessed as bacterial growth inhibition by broth microdilution assay; assay type: functional
Compound,MIC (Escherichia coli [1]) [µM],Ratio (Escherichia coli [2])
CC[C@H](C)[C@H](NC(=O)[C@H](Cc1ccc(O)cc1)NC(=O)[C@@H](NC(=O)[C@@H]1CCCN1C(=O)[C@H](CCCNC(=N)N)NC(=O)[C@H](CC(N)=O)NC(=O)[C@H](CC(N)=O)NC(=O)[C@H](CCCN)N=C(N(C)C)N(C)C)C(C)C)C(=O)N1CCC[C@H]1C(=O)N[C@@H](CCCNC(=N)N)C(=O)N1CCC[C@H]1C(=O)N[C@@H](CCCNC(=N)N)C(=O)N1CCC[C@H]1C(=O)N1CCC[C@H]1C(=O)N[C@@H](Cc1ccc2ccccc2c1)C(=O)N1CCC[C@H]1C(=O)N[C@@H](CCCNC(=N)N)C(=O)N[C@@H](CC(C)C)C(=O)O ({Orn(α-tetramethylguanidino)}-NNRPVYIPRPRPP[2Nal]PRL-OH),10,63
CC[C@H](C)[C@H](NC(=O)[C@H](Cc1ccc(O)cc1)NC(=O)[C@@H](NC(=O)[C@@H]1CCCN1C(=O)[C@H](CCCNC(=N)N)NC(=O)[C@H](CC(N)=O)NC(=O)[C@H](CC(N)=O)NC(=O)[C@H](CCCN)N=C(N(C)C)N(C)C)C(C)C)C(=O)N1CCC[C@H]1C(=O)N[C@@H](CCCNC(=N)N)C(=O)N1C[C@H](O)C[C@H]1C(=O)N[C@@H](CCCNC(=N)N)C(=O)N1CCC[C@H]1C(=O)N1CCC[C@H]1C(=O)N[C@@H](Cc1c[nH]cn1)C(=O)N1CCC[C@H]1C(=O)N[C@@H](CCCNC(=N)N)C(=O)N[C@@H](CC(C)C)C(=O)O ({Orn(α-tetramethylguanidino)}-NNRPVYIPR[Hyp]RPPHPRL-OH),1.2,4
CC[C@H](C)[C@H](NC(=O)[C@H](Cc1ccc(O)cc1)NC(=O)[C@@H](NC(=O)[C@@H]1CCCN1C(=O)[C@H](CCCNC(=N)N)NC(=O)[C@H](CC(N)=O)NC(=O)[C@H](CC(N)=O)NC(=O)[C@H](CCCN)N=C(N(C)C)N(C)C)C(C)C)C(=O)N1CCC[C@H]1C(=O)N[C@@H](CCCNC(=N)N)C(=O)N1CCC[C@H]1C(=O)N[C@@H](CCCNC(=N)N)C(=O)N1CCC[C@H]1C(=O)N1CCC[C@H]1C(=O)N[C@@H](Cc1c[nH]cn1)C(=O)N1CCC[C@H]1C(=O)N[C@@H](CCCNC(=N)N)C(=O)N[C@@H](CO)Cc1ccccc1,40,800
CC[C@H](C)[C@H](NC(=O)[C@H](Cc1ccc(O)cc1)NC(=O)[C@@H](NC(=O)[C@@H]1CCCN1C(=O)[C@H](CCCNC(=N)N)NC(=O)[C@H](CC(N)=O)NC(=O)[C@H](CC(N)=O)NC(=O)[C@H](CCCN)N=C(N(C)C)N(C)C)C(C)C)C(=O)N1CCC[C@H]1C(=O)N[C@@H](CCCNC(=N)N)C(=O)N1CCC[C@H]1C(=O)N[C@@H](CCCNC(=N)N)C(=O)N1CCC[C@H]1C(=O)N1C[C@H](O)C[C@H]1C(=O)N[C@@H](Cc1c[nH]cn1)C(=O)N1CCC[C@H]1C(=O)N[C@@H](CCCNC(=N)N)C(=O)N[C@@H](CC(C)C)C(=O)O ({Orn(α-tetramethylguanidino)}-NNRPVYIPRPRP[Hyp]HPRL-OH),0.6,2
CC[C@H](C)[C@H](NC(=O)[C@H](Cc1ccc(O)cc1)NC(=O)[C@@H](NC(=O)[C@@H]1C[C@@H](O)CN1C(=O)[C@H](CCCNC(=N)N)NC(=O)[C@H](CC(N)=O)NC(=O)[C@H](CC(N)=O)NC(=O)[C@H](CCCN)N=C(N(C)C)N(C)C)C(C)C)C(=O)N1CCC[C@H]1C(=O)N[C@@H](CCCNC(=N)N)C(=O)N1CCC[C@H]1C(=O)N[C@@H](CCCNC(=N)N)C(=O)N1CCC[C@H]1C(=O)N1CCC[C@H]1C(=O)N[C@@H](Cc1c[nH]cn1)C(=O)N1CCC[C@H]1C(=O)N[C@@H](CCCNC(=N)N)C(=O)N[C@@H](CC(C)C)C(=O)O ({Orn(α-tetramethylguanidino)}-NNR[Hyp]VYIPRPRPPHPRL-OH),0.08,1
CC[C@H](C)[C@H](NC(=O)[C@H](CC1CCCCC1)NC(=O)[C@@H](NC(=O)[C@@H]1CCCN1C(=O)[C@H](CCCNC(=N)N)NC(=O)[C@H](CC(N)=O)NC(=O)[C@H](CC(N)=O)NC(=O)[C@H](CCCN)N=C(N(C)C)N(C)C)C(C)C)C(=O)N1CCC[C@H]1C(=O)N[C@@H](CCCNC(=N)N)C(=O)N1CCC[C@H]1C(=O)N[C@@H](CCCNC(=N)N)C(=O)N1CCC[C@H]1C(=O)N1CCC[C@H]1C(=O)N[C@@H](Cc1c[nH]cn1)C(=O)N1CCC[C@H]1C(=O)N[C@@H](CCCNC(=N)N)C(=O)N[C@@H](CC(C)C)C(=O)O ({Orn(α-tetramethylguanidino)}-NNRPV[Cha]IPRPRPPHPRL-OH),0.75,2
CC[C@H](C)[C@H](NC(=O)[C@H](Cc1ccc(OC)cc1)NC(=O)[C@@H](NC(=O)[C@@H]1CCCN1C(=O)[C@H](CCCNC(=N)N)NC(=O)[C@H](CC(N)=O)NC(=O)[C@H](CC(N)=O)NC(=O)[C@H](CCCN)N=C(N(C)C)N(C)C)C(C)C)C(=O)N1CCC[C@H]1C(=O)N[C@@H](CCCNC(=N)N)C(=O)N1CCC[C@H]1C(=O)N[C@@H](CCCNC(=N)N)C(=O)N1CCC[C@H]1C(=O)N1CCC[C@H]1C(=O)N[C@@H](Cc1c[nH]cn1)C(=O)N1CCC[C@H]1C(=O)N[C@@H](CCCNC(=N)N)C(=O)N[C@@H](CC(C)C)C(=O)O ({Orn(α-tetramethylguanidino)}-NNRPVY(Me)IPRPRPPHPRL-OH),1.5,4
CC[C@H](C)[C@H](NC(=O)[C@H](Cc1ccc(O)cc1)NC(=O)[C@@H](NC(=O)[C@@H]1CCCN1C(=O)[C@H](CCCNC(=N)N)NC(=O)[C@H](CC(N)=O)NC(=O)[C@H](CC(N)=O)NC(=O)[C@H](CCCN)N=C(N(C)C)N(C)C)C(C)C)C(=O)N1CCC[C@H]1C(=O)N[C@@H](CCCNC(=N)N)C(=O)N1CCC[C@H]1C(=O)N[C@@H](CCCNC(=N)N)C(=O)N1CCC[C@H]1C(=S)N1CCC[C@H]1C(=O)N[C@@H](Cc1c[nH]cn1)C(=O)N1CCC[C@H]1C(=O)N[C@@H](CCCNC(=N)N)C(=O)N[C@@H](CC(C)C)C(=O)O ({Orn(α-tetramethylguanidino)}-NNRPVYIPRPR[X3]HPRL-OH),0.62,4
CC[C@H](C)[C@H](NC(=O)[C@H](Cc1ccc(O)cc1)NC(=O)[C@@H](NC(=O)[C@@H]1CCCN1C(=O)[C@H](CCCNC(=N)N)NC(=O)[C@H](CC(N)=O)NC(=O)[C@H](CC(N)=O)NC(=O)[C@H](CCCN)N=C(N(C)C)N(C)C)C(C)C)C(=O)N1CCC[C@H]1C(=O)N[C@@H](CCCNC(=N)N)C(=O)N1CCC[C@H]1C(=O)N[C@@H](CCCNC(=N)N)C(=O)N1CCC[C@H]1C(=O)N1CCC[C@H]1C(=O)N[C@@H](Cc1c[nH]c2ccccc12)C(=O)N1CCC[C@H]1C(=O)N[C@@H](CCCNC(=N)N)C(=O)N[C@@H](CC(C)C)C(=O)O ({Orn(α-tetramethylguanidino)}-NNRPVYIPRPRPPWPRL-OH),1.2,8
CC[C@H](C)[C@H](NC(=O)[C@H](Cc1ccc(O)cc1)NC(=O)[C@@H](NC(=O)[C@@H]1CCCN1C(=O)[C@H](CCCNC(=N)N)NC(=O)[C@H](CC(N)=O)NC(=O)[C@H](CC(N)=O)NC(=O)[C@H](CCCN)N=C(N(C)C)N(C)C)C(C)C)C(=O)N1CCC[C@H]1C(=O)N[C@@H](CCCNC(=N)N)C(=O)N1CCC[C@H]1C(=O)N[C@@H](CCCNC(=N)N)C(=O)N1CCC[C@H]1C(=O)N1CCC[C@H]1C(=O)N[C@@H](Cc1c[nH]cn1)C(=O)N1CCC[C@H]1C(=O)N[C@@H](CCCNC(N)=O)C(=O)N[C@@H](CC(C)C)C(=O)O ({Orn(α-tetramethylguanidino)}-NNRPVYIPRPRPPHP[Cit]L-OH),20,128
CC[C@H](C)[C@H](NC(=O)[C@H](Cc1ccc(O)cc1)NC(=O)[C@@H](NC(=O)[C@@H]1CCCN1C(=O)[C@H](CCCNC(=N)N)NC(=O)[C@H](CC(N)=O)NC(=O)[C@H](CC(N)=O)NC(=O)[C@H](CCCN)N=C(N(C)C)N(C)C)C(C)C)C(=O)N1CCC[C@H]1C(=O)N[C@@H](CCCNC(=N)N)C(=O)N1CCC[C@H]1C(=S)N[C@@H](CCCNC(=N)N)C(=O)N1CCC[C@H]1C(=O)N1CCC[C@H]1C(=O)N[C@@H](Cc1c[nH]cn1)C(=O)N1CCC[C@H]1C(=O)N[C@@H](CCCNC(=N)N)C(=O)N[C@@H](CC(C)C)C(=O)O ({Orn(α-tetramethylguanidino)}-NNRPVYIPR[X1]PPHPRL-OH),0.62,4
CC[C@H](C)[C@H](NC(=O)[C@H](Cc1ccc(O)cc1)NC(=O)[C@@H](NC(=O)[C@@H]1CCCN1C(=O)[C@H](CCCNC(=N)N)NC(=O)[C@H](CC(N)=O)NC(=O)[C@H](CC(N)=O)NC(=O)[C@H](CCCN)N=C(N(C)C)N(C)C)C(C)C)C(=O)N1CCC[C@H]1C(=O)N[C@@H](CCCNC(=N)N)C(=O)N1CCC[C@H]1C(=O)N[C@@H](CCCNC(=N)N)C(=O)N1CCC[C@H]1C(=O)N1CCC[C@H]1C(=O)N[C@@H](Cc1c[nH]cn1)C(=O)N1CCC[C@H]1C(=S)N[C@@H](CCCNC(=N)N)C(=O)N[C@@H](CC(C)C)C(=O)O ({Orn(α-tetramethylguanidino)}-NNRPVYIPRPRPPH[X1]L-OH),0.62,4
CC[C@H](C)[C@H](NC(=O)[C@H](Cc1ccc(O)cc1)NC(=O)[C@@H](NC(=O)[C@@H]1CCCN1C(=O)[C@H](CCCNC(=N)N)NC(=O)[C@H](CC(N)=O)NC(=O)[C@H](CC(N)=O)NC(=O)[C@H](CCCN)N=C(N(C)C)N(C)C)C(C)C)C(=O)N1C[C@H](O)C[C@H]1C(=O)N[C@@H](CCCNC(=N)N)C(=O)N1CCC[C@H]1C(=O)N[C@@H](CCCNC(=N)N)C(=O)N1CCC[C@H]1C(=O)N1CCC[C@H]1C(=O)N[C@@H](Cc1c[nH]cn1)C(=O)N1CCC[C@H]1C(=O)N[C@@H](CCCNC(=N)N)C(=O)N[C@@H](CC(C)C)C(=O)O ({Orn(α-tetramethylguanidino)}-NNRPVYI[Hyp]RPRPPHPRL-OH),0.08,1
CC[C@H](C)[C@H](NC(=O)[C@H](Cc1ccc(O)cc1)NC(=O)[C@@H](NC(=O)[C@@H]1CCCN1C(=O)[C@H](CCCNC(=N)N)NC(=O)[C@H](CC(N)=O)NC(=O)[C@H](CC(N)=O)NC(=O)[C@H](CCCN)N=C(N(C)C)N(C)C)C(C)C)C(=O)N1CCC[C@H]1C(=O)N[C@@H](CCCNC(=N)N)C(=O)N1CCC[C@H]1C(=O)N[C@@H](CCCNC(=N)N)C(=O)N1CCC[C@H]1C(=O)N1CCC[C@H]1C(=O)N[C@@H](Cc1c[nH]cn1)C(=O)N1C[C@H](O)C[C@H]1C(=O)N[C@@H](CCCNC(=N)N)C(=O)N[C@@H](CC(C)C)C(=O)O ({Orn(α-tetramethylguanidino)}-NNRPVYIPRPRPPH[Hyp]RL-OH),0.3,2
